Data published in ChEMBL document CHEMBL4431383, “Structure-activity relationship of novel series of 1,5-disubstituted tetrazoles as cyclooxygenase-2 inhibitors: Design, synthesis, bioassay screening and molecular docking studies” (Bioorg Med Chem Lett, 2016).
Blank lines part the entries; values can stand above or below the compound they belong to.

Key:
[1] = Selectivity ratio of IC50 for ovine COX-1 to IC50 for recombinant human COX-2
[2] = molecular target: T1, Prostaglandin G/H synthase 1 (Ovis aries, UniProt P05979); experiment: Inhibition of ovine COX1 assessed as PGH2 formation preincubated for 10 mins followed by addition of arachidonic acid as substrate measured after 2 mins by ELISA
T1 sequence (P05979 whole entry): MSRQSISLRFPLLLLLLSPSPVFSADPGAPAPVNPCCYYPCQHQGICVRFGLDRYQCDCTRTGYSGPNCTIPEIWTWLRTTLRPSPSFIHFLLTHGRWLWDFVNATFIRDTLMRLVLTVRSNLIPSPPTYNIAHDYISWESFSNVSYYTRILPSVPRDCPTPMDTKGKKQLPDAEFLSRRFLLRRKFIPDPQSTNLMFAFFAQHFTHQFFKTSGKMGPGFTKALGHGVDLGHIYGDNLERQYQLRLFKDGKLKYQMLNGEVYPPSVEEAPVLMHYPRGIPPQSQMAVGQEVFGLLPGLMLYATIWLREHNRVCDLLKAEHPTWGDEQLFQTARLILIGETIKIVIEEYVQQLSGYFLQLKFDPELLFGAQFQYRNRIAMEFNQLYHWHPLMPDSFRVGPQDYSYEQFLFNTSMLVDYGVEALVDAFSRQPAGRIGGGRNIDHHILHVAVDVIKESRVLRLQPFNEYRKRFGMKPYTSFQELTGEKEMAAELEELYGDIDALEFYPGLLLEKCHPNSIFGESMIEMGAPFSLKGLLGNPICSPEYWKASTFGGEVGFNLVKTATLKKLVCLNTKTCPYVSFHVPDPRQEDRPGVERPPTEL

[3] = molecular target: T2, Prostaglandin G/H synthase 2 (Homo sapiens, UniProt P35354); experiment: Inhibition of recombinant human COX2 assessed as PGH2 formation preincubated for 10 mins followed by addition of arachidonic acid as substrate measured after 2 mins by ELISA
T2 sequence (P35354 whole entry): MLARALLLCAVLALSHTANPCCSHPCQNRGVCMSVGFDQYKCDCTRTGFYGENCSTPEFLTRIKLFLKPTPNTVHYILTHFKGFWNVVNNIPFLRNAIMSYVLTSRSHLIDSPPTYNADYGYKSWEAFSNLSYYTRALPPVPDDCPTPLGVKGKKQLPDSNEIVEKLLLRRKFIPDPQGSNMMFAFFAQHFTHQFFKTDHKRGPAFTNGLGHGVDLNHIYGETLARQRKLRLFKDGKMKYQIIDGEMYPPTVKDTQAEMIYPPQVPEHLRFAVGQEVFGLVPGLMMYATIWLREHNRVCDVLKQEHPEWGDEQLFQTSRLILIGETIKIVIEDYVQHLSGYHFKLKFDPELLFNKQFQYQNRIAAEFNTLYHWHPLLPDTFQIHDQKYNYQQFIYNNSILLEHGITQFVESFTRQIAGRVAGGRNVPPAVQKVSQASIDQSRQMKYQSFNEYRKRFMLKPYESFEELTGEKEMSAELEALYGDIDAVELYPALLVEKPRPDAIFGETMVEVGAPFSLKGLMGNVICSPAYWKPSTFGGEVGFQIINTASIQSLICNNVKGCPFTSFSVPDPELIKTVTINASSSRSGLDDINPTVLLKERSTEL

[4] = Selectivity ratio of IC50 for recombinant human COX-2 to IC50 for ovine COX-1

SMILES: CS(=O)(=O)c1ccc(-c2nnnn2-c2ccc(CO)cc2)cc1
Ratio IC50 [1]: > 0.02 | IC50 [2]: 9 µM | IC50 [3]: > 500 µM | Ratio IC50 [4]: 55

SMILES: NS(=O)(=O)c1ccc(-c2nnnn2-c2ccc(O)cc2)cc1
Ratio IC50 [1]: > 0.2 | IC50 [2]: 100 µM | IC50 [3]: > 500 µM

SMILES: NS(=O)(=O)c1ccc(-c2nnnn2-c2ccc(CCO)cc2)cc1
Ratio IC50 [1]: > 2 | IC50 [2]: > 200 µM | IC50 [3]: 99 µM

SMILES: NS(=O)(=O)c1ccc(-c2nnnn2-c2ccc(CO)cc2)cc1
Ratio IC50 [1]: 0.87 | IC50 [2]: 21 µM | IC50 [3]: 24 µM | Ratio IC50 [4]: 1.14

SMILES: CS(=O)(=O)c1ccc(-c2nnnn2-c2ccc(CCO)cc2)cc1
Ratio IC50 [1]: > 7.1 | IC50 [2]: > 500 µM | IC50 [3]: 70 µM

Next, values leading:

Ratio IC50 [1]: > 67 | IC50 [2]: > 200 µM | IC50 [3]: 3 µM | Ratio IC50 [4]: > 0.015
SMILES: CS(=O)(=O)c1ccc(Cc2nnnn2-c2ccc(CCO)cc2)cc1

Ratio IC50 [1]: > 1.7 | IC50 [2]: > 500 µM | IC50 [3]: > 300 µM
SMILES: CS(=O)(=O)c1ccc(-c2nnnn2-c2ccc(O)cc2)cc1

Ratio IC50 [1]: > 5.2 | IC50 [2]: > 200 µM | IC50 [3]: 38 µM | Ratio IC50 [4]: > 0.19
SMILES: CS(=O)(=O)c1ccc(Cc2nnnn2-c2ccc(CO)cc2)cc1

Ratio IC50 [1]: > 0.42 | IC50 [2]: 85 µM | IC50 [3]: > 200 µM
SMILES: CS(=O)(=O)c1ccc(Cc2nnnn2-c2ccc(O)cc2)cc1
